From ChEMBL document CHEMBL1909294, “Translating clinical findings into knowledge in drug safety evaluation--drug induced liver injury prediction system (DILIps)” (PLoS Comput Biol, 2011)

Legend:
Hepatotoxicity [1] = tested on: Hepatotoxicity;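 as to HepSE bilirubinemia: bilirubinemia hepatic side effect score drawn from the DILIps training data, a prediction system for drug-induced liver injury; call rule not given here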;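 as to HepSE cholecystitis: Cholecystitis-related hepatic side effect score drawn from the DILIps (drug-induced liver injury prediction) training data set; call rule not given here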;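 as to HepSE cholelithiasis: hepatic side effect score for cholelithiasis, drawn from the DILIps training data for predicting drug-induced liver injury; call rule not given here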;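 as to HepSE cirrhosis: cirrhosis hepatic side effect score taken from the DILIps (drug-induced liver injury prediction) training set; call rule not given here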;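 as to HepSE elevated liver function tests: hepatic side effect score for raised liver function tests, as recorded in the DILIps training set used for predicting drug-induced liver injury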; as to HepSE hepatic failure: call rule not given here;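 as to HepSE hepatomegaly: hepatic side effect score for hepatomegaly, taken from the training set of the DILIps drug-induced liver injury prediction system; call rule not given here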
Hepatotoxicity [2] = tested on: Hepatotoxicity; remark: listed apart in the source;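 as to HepSE bilirubinemia: bilirubinemia hepatic side effect score drawn from the DILIps training data, a prediction system for drug-induced liver injury; call rule not given here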;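 as to HepSE cholecystitis: Cholecystitis-related hepatic side effect score drawn from the DILIps (drug-induced liver injury prediction) training data set; call rule not given here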;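 as to HepSE cholelithiasis: hepatic side effect score for cholelithiasis, drawn from the DILIps training data for predicting drug-induced liver injury; call rule not given here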;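 as to HepSE cirrhosis: cirrhosis hepatic side effect score taken from the DILIps (drug-induced liver injury prediction) training set; call rule not given here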;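 as to HepSE elevated liver function tests: hepatic side effect score for raised liver function tests, as recorded in the DILIps training set used for predicting drug-induced liver injury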; as to HepSE hepatic failure: call rule not given here
Hepatotoxicity [3] = tested on: Hepatotoxicity; remark: listed apart in the source;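 as to HepSE bilirubinemia: bilirubinemia hepatic side effect score drawn from the DILIps training data, a prediction system for drug-induced liver injury; call rule not given here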;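 as to HepSE cholecystitis: Cholecystitis-related hepatic side effect score drawn from the DILIps (drug-induced liver injury prediction) training data set; call rule not given here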;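 as to HepSE cholelithiasis: hepatic side effect score for cholelithiasis, drawn from the DILIps training data for predicting drug-induced liver injury; call rule not given here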;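 as to HepSE cirrhosis: cirrhosis hepatic side effect score taken from the DILIps (drug-induced liver injury prediction) training set; call rule not given here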;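 as to HepSE elevated liver function tests: hepatic side effect score for raised liver function tests, as recorded in the DILIps training set used for predicting drug-induced liver injury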; as to HepSE hepatic failure: call rule not given here
Hepatotoxicity [4] = tested on: Hepatotoxicity; remark: listed apart in the source;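 as to HepSE bilirubinemia: bilirubinemia hepatic side effect score drawn from the DILIps training data, a prediction system for drug-induced liver injury; call rule not given here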;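 as to HepSE cholecystitis: Cholecystitis-related hepatic side effect score drawn from the DILIps (drug-induced liver injury prediction) training data set; call rule not given here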;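 as to HepSE cholelithiasis: hepatic side effect score for cholelithiasis, drawn from the DILIps training data for predicting drug-induced liver injury; call rule not given here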;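 as to HepSE cirrhosis: cirrhosis hepatic side effect score taken from the DILIps (drug-induced liver injury prediction) training set; call rule not given here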;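 as to HepSE elevated liver function tests: hepatic side effect score for raised liver function tests, as recorded in the DILIps training set used for predicting drug-induced liver injury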; as to HepSE hepatic failure: call rule not given here
Hepatotoxicity [5] = tested on: Hepatotoxicity; remark: listed apart in the source; as to HepSE hepatic failure: call rule not given here
Hepatotoxicity [6] = tested on: Hepatotoxicity; remark: listed apart in the source; as to HepSE hepatic failure: call rule not given here
Hepatotoxicity [7] = tested on: Hepatotoxicity; remark: listed apart in the source
Hepatotoxicity [8] = tested on: Hepatotoxicity; remark: listed apart in the source
Hepatotoxicity [9] = tested on: Hepatotoxicity; remark: listed apart in the source
Hepatotoxicity [10] = tested on: Hepatotoxicity; remark: listed apart in the source
Hepatotoxicity [11] = tested on: Hepatotoxicity; remark: listed apart in the source
Hepatotoxicity [12] = tested on: Hepatotoxicity; remark: listed apart in the source
Hepatotoxicity [13] = tested on: Hepatotoxicity; remark: listed apart in the source
Hepatotoxicity [14] = tested on: Hepatotoxicity; remark: listed apart in the source
Hepatotoxicity [15] = tested on: Hepatotoxicity; remark: listed apart in the source
Hepatotoxicity [16] = tested on: Hepatotoxicity; remark: listed apart in the source

Molecule | DILI positive/negative (Hepatotoxicity [1]) | DILI positive/negative (Hepatotoxicity [16]) | also measured
CO[C@@H]1O[C@H](CO)[C@H](O)[C@H](O[C@@H]2O[C@@H](C(=O)O)[C@@H](OC)[C@H](O)[C@H]2O)[C@H]1NC(C)=O | 1 |  | 
CCO[C@@H]1OC(=O)C[C@@H]1NC(=O)[C@@H]1CCCN2C(=O)CC[C@H](NC(=O)c3nccc4ccccc34)C(=O)N12 | 1 |  | 
CC(N)C(=O)OC(C)(C)Cc1ccc(Cl)cc1 (stereo not drawn) [ALAPROCLATE] | 1 |  | 
C[C@H](N)C(=O)N[C@@H](C)C(=O)N[C@H]1[C@@H]2CN(c3nc4c(cc3F)c(=O)c(C(=O)O)cn4-c3ccc(F)cc3F)C[C@@H]21 [ALATROFLOXACIN] | 1 |  | 
C=CCOc1ccc(CC(=O)O)cc1Cl [ALCLOFENAC] |  |  | DILI positive/negative (Hepatotoxicity [1]; Liver): 1
O=C(O)CCCCCCNC1c2ccccc2CCc2ccccc21 [AMINEPTINE] | 1 |  | 
CCCCN1C(=O)[C@@H]([C@H](O)C2CCCCC2)NC(=O)C12CCN(Cc1ccc(Oc3ccc(C(=O)O)cc3)cc1)CC2 [APLAVIROC] | 1 |  | 
O=C(O)COc1nn(Cc2ccccc2)c2ccccc12 [BENDAZAC] |  |  | DILI positive/negative (Hepatotoxicity [1]; Liver): 1
CCc1oc2ccccc2c1C(=O)c1ccc(O)cc1 [BENZARONE] | 1 |  | 
CCc1oc2ccccc2c1C(=O)c1cc(I)c(O)c(I)c1 [BENZIODARONE] | 1 |  | 
CCCCNc1ccc(C(=O)OCCOCCOCCOCCOCCOCCOCCOCCOCCOC)cc1 [BENZONATATE] | 0 |  | 
C[C@@H](Cc1ccccc1)N(C)Cc1ccccc1 [BENZPHETAMINE] | 0 |  | 
CN1C(=O)CCS(=O)(=O)C1c1ccc(Cl)cc1 (stereo not drawn) [CHLORMEZANONE] | 1 |  | 
Nc1nc(Cl)nc2c1ncn2[C@H]1C[C@H](O)[C@@H](CO)O1 [CLADRIBINE] |  | 0 | HepSE_bilirubinemia (Hepatotoxicity [2]): 0; HepSE_cholecystitis (Hepatotoxicity [3]): 0; HepSE_cholelithiasis (Hepatotoxicity [4]): 0; HepSE_cirrhosis (Hepatotoxicity [5]): 0; HepSE_elevated liver function tests (Hepatotoxicity [6]): 0; HepSE_hepatic failure (Hepatotoxicity [7]): 0; HepSE_hepatic necrosis (Hepatotoxicity [8]): 0; HepSE_hepatitis (Hepatotoxicity [9]): 0; HepSE_hepatomegaly (Hepatotoxicity [10]): 0; HepSE_jaundice (Hepatotoxicity [11]): 0; HepSE_liver disease (Hepatotoxicity [12]): 0; HepSE_liver fatty (Hepatotoxicity [13]): 0; HepSE_liver function tests abnormal (Hepatotoxicity [14]): 0; HepSE_Combined Scores (Hepatotoxicity [15]): 0
CN(C)CCCC1c2ccccc2Nc2ccc(Cl)cc21 (stereo not drawn) [CLOMACRAN] | 1 |  | 
COc1ccc2c(C(=O)c3ccc(Cl)cc3)c(C)n(CC(=O)O)c2c1 [CLOMETACIN] | 1 |  | 
CCN(CC)CCOc1ccc(C(=C(Cl)c2ccccc2)c2ccccc2)cc1 [CLOMIPHENE] |  | 1 | HepSE_bilirubinemia (Hepatotoxicity [2]): 0; HepSE_cholecystitis (Hepatotoxicity [3]): 0; HepSE_cholelithiasis (Hepatotoxicity [4]): 0; HepSE_cirrhosis (Hepatotoxicity [5]): 0; HepSE_elevated liver function tests (Hepatotoxicity [6]): 0; HepSE_hepatic failure (Hepatotoxicity [7]): 0; HepSE_hepatic necrosis (Hepatotoxicity [8]): 0; HepSE_hepatitis (Hepatotoxicity [9]): 1; HepSE_hepatomegaly (Hepatotoxicity [10]): 0; HepSE_jaundice (Hepatotoxicity [11]): 0; HepSE_liver disease (Hepatotoxicity [12]): 0; HepSE_liver fatty (Hepatotoxicity [13]): 0; HepSE_liver function tests abnormal (Hepatotoxicity [14]): 0; HepSE_Combined Scores (Hepatotoxicity [15]): 1
CC(=O)Oc1ccc(C(=C2CCCCC2)c2ccc(OC(C)=O)cc2)cc1 [CYCLOFENIL] | 1 |  | 
CN1c2c(oc(=O)n(-c3ccccn3)c2=O)-c2ccccc2S1(=O)=O [DROXICAM] | 1 |  | 
NC(N)=Nc1nc(CSCCN/C=N/S(=O)(=O)c2ccc(Br)cc2)cs1 [EBROTIDINE] | 1 |  | 
CC[N+](C)(C)c1cccc(O)c1.[Br-] [EDROPHONIUM BROMIDE] | 0 |  | 
CC1=NN(c2ccc(C)c(C)c2)C(=O)/C1=N\Nc1cccc(-c2cccc(C(=O)O)c2)c1O [ELTROMBOPAG] |  |  | DILI positive/negative (Hepatotoxicity [1]; Liver): 1
O=C(c1cc(O)c(O)c(O)c1)c1ccc(O)c(O)c1O [EXIFONE] | 1 |  | 
CN1CCC(Nc2ncc3ncnc(Nc4ccc(F)c(Cl)c4)c3n2)CC1 [FALNIDAMOL] |  |  | DILI positive/negative (Hepatotoxicity [1]; Liver): 1

Molecule | DILI positive/negative (Hepatotoxicity [1]) | DILI positive/negative (Hepatotoxicity [16]) | also measured
O=C(O)Cc1csc(-c2ccc(Cl)cc2)n1 [FENCLOZIC ACID] | 1 |  | 
COc1cccc2c1[C@@H]1CN(CCCCn3c(=O)[nH]c4c(sc5ncc(-c6ccccc6)nc54)c3=O)C[C@@H]1CO2 [FIDUXOSIN] | 1 |  | 
CC(C)Nc1ncccn1 [ISAXONINE] | 1 |  | 
CS(=O)(=O)CCNCc1ccc(-c2ccc3ncnc(Nc4ccc(OCc5cccc(F)c5)c(Cl)c4)c3c2)o1 [LAPATINIB] | 1 |  | 
Cc1ccc(Nc2c(F)cccc2Cl)c(CC(=O)O)c1 [LUMIRACOXIB] | 1 |  | 
Cc1nnc(C(C)C)n1[C@@H]1C[C@H]2CC[C@@H](C1)N2CC[C@H](NC(=O)C1CCC(F)(F)CC1)c1ccccc1 [MARAVIROC] | 1 |  | 
CC(NN)c1ccccc1 (stereo not drawn) [MEBANAZINE] | 1 |  | 
CN1CCCC(CN2c3ccccc3Sc3ccccc32)C1 (stereo not drawn) [MEPAZINE] | 1 |  | 
C#C[C@]1(O)CC[C@H]2[C@@H]3CCc4cc(OC)ccc4[C@H]3CC[C@@]21C [MESTRANOL] |  | 1 | 
C=C1c2cccc(O)c2C(=O)C2=C(O)[C@]3(O)C(=O)C(C(N)=O)=C(O)[C@@H](N(C)C)[C@@H]3[C@@H](O)[C@H]12.Cl [METHACYCLINE HYDROCHLORIDE] |  | 1 | 
COc1ccc(OC)c(C(O)C(C)N)c1.Cl (stereo not drawn) [METHOXAMINE HYDROCHLORIDE] |  | 0 | 
CC1(C)S[C@@H]2[C@H](NC(=O)[C@H](NC(=O)N3CCN(S(C)(=O)=O)C3=O)c3ccccc3)C(=O)N2[C@H]1C(=O)[O-].[Na+] [MEZLOCILLIN SODIUM] |  |  | DILI positive/negative (Hepatotoxicity [16]; Liver): 1
CN1CCN2c3ccccc3Cc3ccccc3C2C1 (stereo not drawn) [MIANSERIN] |  | 1 | 
COCC(=O)O[C@]1(CCN(C)CCCc2nc3ccccc3[nH]2)CCc2cc(F)ccc2[C@@H]1C(C)C [MIBEFRADIL] |  | 0 | 
NCCO [MONOETHANOLAMINE] | 0 |  | 
CO[C@@]1(NC(=O)C(C(=O)[O-])c2ccc(O)cc2)C(=O)N2C(C(=O)[O-])=C(CSc3nnnn3C)CO[C@@H]21.[Na+].[Na+] (stereo partly drawn) [MOXALACTAM DISODIUM] |  | 0 | 
O=C(CCNNC(=O)c1ccncc1)NCc1ccccc1 [NIALAMIDE] | 1 |  | 
COC(=O)C1=C(C)NC(C)=C(C(=O)OCC(C)C)C1c1ccccc1[N+](=O)[O-] (stereo not drawn) [NISOLDIPINE] |  | 0 | 
COC(=O)Nc1nc2ccc(C(=O)c3cccs3)cc2[nH]1 [NOCODAZOLE] |  | 0 | 
C#CC1(O)CC[C@H]2[C@@H]3CCC4=CC(=O)CC[C@@H]4[C@H]3CC[C@@]21CC (stereo partly drawn) [NORGESTREL] |  |  | DILI positive/negative (Hepatotoxicity [16]; Liver): 1
CCCCC(CC)COC(=O)C=Cc1ccc(OC)cc1 (stereo not drawn) [OCTINOXATE] |  | 1 | 
O=S(=O)(O)O.Oc1cccc2cccnc12.Oc1cccc2cccnc12 [OXYQUINOLINE SULFATE] |  |  | DILI positive/negative (Hepatotoxicity [16]; Liver): 1
CCOc1ccc(NC(C)=O)cc1 [PHENACETIN] |  | 1 | 
Cl.Nc1ccc(/N=N/c2ccccc2)c(N)n1 [PHENAZOPYRIDINE HYDROCHLORIDE] |  | 1 | 

Molecule | DILI positive/negative (Hepatotoxicity [1]) | DILI positive/negative (Hepatotoxicity [16]) | also measured
c1ccc2c(c1)Nc1ccccc1S2 [PHENOTHIAZINE] |  | 1 | 
CC(N)C(O)c1ccccc1.Cl (stereo not drawn) [PHENYLPROPANOLAMINE HYDROCHLORIDE] |  | 0 | 
CC(C)(Sc1cc(C(C)(C)C)c(O)c(C(C)(C)C)c1)Sc1cc(C(C)(C)C)c(O)c(C(C)(C)C)c1 [PROBUCOL] |  | 0 | 
CN[C@@H](C)[C@@H](O)c1ccccc1.Cl [PSEUDOEPHEDRINE HYDROCHLORIDE] |  | 0 | 
CCO[C@@H](Cc1ccc(OCCN2c3ccccc3Oc3ccccc32)cc1)C(=O)O [RAGAGLITAZAR] |  | 0 | 
Nc1ccc(S(=O)(=O)NC(=O)c2ccccc2)cc1 [SULFABENZAMIDE] |  | 0 | 
CC1CN(c2cc3c(cc2F)c(=O)c(C(=O)O)cn3-c2ccc(F)cc2F)CCN1 (stereo not drawn) [TEMAFLOXACIN] |  | 1 | 
CCCCNc1ccc(C(=O)OCCN(C)C)cc1.Cl [TETRACAINE HYDROCHLORIDE] |  | 0 | 
CN1c2ccccc2C(NCCCCCCC(=O)O)c2ccc(Cl)cc2S1(=O)=O (stereo not drawn) [TIANEPTINE] |  | 1 | 
CN1C(=O)OC(C)(C)C1=O [TRIMETHADIONE] |  | 1 | 
COc1cc(C(=O)NCc2ccc(OCCN(C)C)cc2)cc(OC)c1OC.Cl [TRIMETHOBENZAMIDE HYDROCHLORIDE] |  | 1 | 
CN(C)CCN(Cc1ccccc1)c1ccccn1.Cl [TRIPELENNAMINE HYDROCHLORIDE] |  | 1 | 
CO[C@H]1C[C@H](O[C@H]2[C@H](C)[C@@H](O[C@@H]3O[C@H](C)C[C@H](N(C)C)[C@H]3OC(C)=O)[C@@H](C)C[C@@]3(CO3)C(=O)[C@H](C)[C@@H](OC(C)=O)[C@@H](C)[C@@H](C)OC(=O)[C@@H]2C)O[C@@H](C)[C@@H]1OC(C)=O [TROLEANDOMYCIN] |  | 1 | 
Oc1ncc(N(CCCl)CCCl)c(O)n1 [URACIL MUSTARD] |  |  | DILI positive/negative (Hepatotoxicity [16]; Liver): 1
Nc1ncnc2c1ncn2[C@@H]1O[C@H](CO)[C@@H](O)[C@@H]1O [VIDARABINE] |  | 0 | 
CC[C@]1(O)C[C@@H]2CN(CCc3c([nH]c4ccccc34)[C@@](C(=O)OC)(c3cc4c(cc3OC)N(C)[C@H]3[C@@](O)(C(=O)OC)[C@H](OC(C)=O)[C@]5(CC)C=CCN6CC[C@]43[C@@H]65)C2)C1.O=S(=O)(O)O [VINBLASTINE SULFATE] |  | 0 | 
Cc1cc(CC(=O)O)n(C)c1C(=O)c1ccc(Cl)cc1 [ZOMEPIRAC] |  | 0 | 
AUROTHIOGLUCOSE |  | 1 | 
BISMUTH SUBSALICYLATE |  | 0 | 
FERROUS SULFATE |  | 0 | 
GALLIUM NITRATE HYDRATE |  | 0 | 
LACTOSE, ANHYDROUS |  | 0 | 
